Data as given in patent EP4603105A1, “PHARMACEUTICAL COMPOSITION CONTAINING CYCLIC COMPOUND HAVING SELECTIVE KRAS INHIBITORY EFFECT AGAINST HRAS AND NRAS” (CHUGAI SEIYAKU KABUSHIKI KAISHA, priority 2022, dated 2024).
*1 amine or outer side, *2 acyl side, *3 side chain or, on linkers, in order; H or OH if unused. Where a SMILES comes first, the peptide text is derived from it. Bridges are numbered along the chain shown (N, C = ends). [ ]: non-standard residue; d: D form. The star is where a group is joined. hPhe(3,5-F2-4-CF3) = N[C@@H](CCc1cc(F)c(C(F)(F)F)c(F)c1)C(=O)O; NPrPhe(4-CF3) = CCCN[C@@H](Cc1ccc(C(F)(F)F)cc1)C(=O)O; X16 = O=C([C@@H](N[*:1])C1CC(F)(F)C1)[*:2]; NMeGly(cPent) = CN[C@H](C(=O)O)C1CCCC1; NMeD = CN[C@@H](CC(=O)O)C(=O)O; NMeL = CN[C@@H](CC(C)C)C(=O)O; Morpholide = C1CN(*)CCO1; Ac5c = NC1(C(=O)O)CCCC1; Aze = O=C(O)[C@@H]1CCN1; Sar = CNCC(=O)O

How the values were obtained:
[1] = biological target: GDP-bound NRAS wild-type protein (Homo sapiens, UniProt P01111); test: Binding to NRAS by surface plasmon resonance (SPR), KD and KD ratio to KRAS
Method in brief: (§1)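 Captured GDP-RAS (~100–300 RU) was exposed to increasing compound concentrations, 75 s per step, in running buffer with 10 µM GDP, 10 mM MgCl2 and 4% DMSO at pH 7.4.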

HRAS wild-type protein = HRAS wild-type protein (Homo sapiens, UniProt P01112); test: Binding to HRAS by surface plasmon resonance (SPR), KD and KD ratio to KRAS
Method in brief: as §1

[2] = system: human lung cancer strain NCI-H441; type: cell-based
Method in brief: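 Step one: dispense the test compound in serial DMSO dilutions. Step three: add the reagent and measure […].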

[3] = ratio of the KD value with respect to GDP-bound NRAS wild-type protein to the KD value with respect to KRAS
[4] = ratio of the KD value with respect to HRAS wild-type protein to the KD value with respect to KRAS
[5] = ratio of KD for GDP-bound NRAS wild-type protein to KD for KRAS
[6] = ratio of KD for HRAS wild-type protein to KD for KRAS

Chain of GDP-bound NRAS wild-type protein (P01111 whole entry): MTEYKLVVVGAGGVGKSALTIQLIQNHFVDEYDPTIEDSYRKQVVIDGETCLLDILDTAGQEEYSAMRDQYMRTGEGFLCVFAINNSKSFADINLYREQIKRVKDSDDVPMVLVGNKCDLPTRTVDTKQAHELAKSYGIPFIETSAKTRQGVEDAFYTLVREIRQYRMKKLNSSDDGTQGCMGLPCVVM
Chain of HRAS wild-type protein (P01112 whole entry): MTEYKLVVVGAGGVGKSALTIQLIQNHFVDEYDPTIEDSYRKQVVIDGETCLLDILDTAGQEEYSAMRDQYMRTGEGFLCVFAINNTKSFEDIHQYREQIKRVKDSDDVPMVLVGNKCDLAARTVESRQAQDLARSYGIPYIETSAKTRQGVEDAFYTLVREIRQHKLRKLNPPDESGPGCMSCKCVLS

Structure (SMILES) | IC50 [2] [nM] | NRAS /KRAS [1, 3] | HRAS /KRAS (HRAS wild-type protein; [4]) | NRAS /KRAS [1, 5] | HRAS /KRAS (HRAS wild-type protein; [6])
CC[C@H](C)[C@@H]1NC(=O)[C@H](CC(C)C)N(C)C(=O)C[C@@H](C(=O)N2CCOCC2)N(C)C(=O)[C@H](C2CCCC2)N(C)C(=O)C2(CCCC2)NC(=O)[C@@H]2CCCN2C(=O)[C@H](CCc2cc(F)c(C(F)(F)F)c(F)c2)NC(=O)CN(C)C(=O)[C@H](Cc2ccc(C(F)(F)F)cc2)N2CCCC[C@@H](C2=O)N(C)C(=O)CNC1=O [PP0542] | 3.4 | B (a compound having 3 or more and less than 10 is denoted as B) | B (a compound having 3 or more and less than 10 is denoted as B) |  | 
CCO[C@@H]1C[C@H]2C(=O)NC3(CCC3)C(=O)N(C)[C@@H](C3CCCC3)C(=O)N(C)[C@H](C(=O)N3CCOCC3)CC(=O)N(C)[C@@H](CC(C)C)C(=O)N[C@@H]([C@@H](C)CC)C(=O)N(C)CC(=O)N(C)[C@H]3CCCCCN(C3=O)[C@@H](Cc3ccc(C(F)(F)F)cc3)C(=O)N(C)CC(=O)N[C@@H](CCc3cc(F)c(C(F)(F)F)c(F)c3)C(=O)N2C1 [PP0467] | 33.8 | B (a compound having 3 or more and less than 10 is denoted as B) | B (a compound having 3 or more and less than 10 is denoted as B) |  | 
CCCN1C(=O)[C@@H]2CCN2C(=O)CN(C)C(=O)[C@H](C2CC(F)(F)C2)NC(=O)[C@H](CC(C)C)N(C)C(=O)C[C@@H](C(=O)N2CCOCC2)N(C)C(=O)[C@H](C2CCCC2)N(C)C(=O)C2(CCCC2)NC(=O)[C@@H]2CCCN2C(=O)[C@H](CCc2cc(F)c(C(F)(F)F)c(F)c2)NC(=O)CN(C)C(=O)[C@@H]1Cc1ccc(C(F)(F)F)cc1 [PP0787] ([NMeL][X16][Sar][Aze][NPrPhe(4-CF3)][Sar][hPhe(3,5-F2-4-CF3)]P[Ac5c][NMeGly(cPent)][NMeD]-Morpholide; lactam N-11) | 38.3 |  |  | C (A compound having a KD ratio of 0.1 or more and less than 3 is denoted as C) | B (a compound having 3 or more and less than 10 is denoted as B)

Continued by falling IC50 [2], values first:

IC50 [2] [nM] | Structure (SMILES) | NRAS /KRAS [1, 3] | HRAS /KRAS (HRAS wild-type protein; [4]) | NRAS /KRAS [1, 5] | HRAS /KRAS (HRAS wild-type protein; [6])
39.2 | CCC[C@H]1C(=O)N[C@@H]([C@@H](C)CC)C(=O)N(C)CC(=O)N(C)[C@H]2C/C=C\CCN(C2=O)[C@@H](Cc2ccc(C)cc2)C(=O)N(C)CC(=O)N[C@@H](CCc2ccc(Cl)c(Cl)c2)C(=O)N2CCCCC[C@H]2C(=O)NC2(CC(C)(C)C2)C(=O)N(C)[C@@H](C(CC)CC)C(=O)N(C)[C@H](C(=O)N(C)C)CC(=O)N1C [PP2962] |  |  | AA (a compound having 20 or more is denoted as AA) | A (a compound having 10 or more and less than 20 is denoted as A)
26.6 | CC[C@H](C)[C@@H]1NC(=O)[C@H](CCOC)N(C)C(=O)C[C@@H](C(=O)N(C)CC)N(C)C(=O)[C@H](C2CCCC2)N(C)C(=O)C2(CC(C)(C)C2)NC(=O)[C@@H]2C[C@H](C)CN2C(=O)[C@H](CCc2ccc(C(F)(F)F)c(OC)c2)NC(=O)CN(C)C(=O)[C@H](Cc2ccc(C(F)(F)F)cc2)N2CC/C=C\C[C@@H](C2=O)N(C)C(=O)CN(C)C1=O [PP1999] | A (a compound having 10 or more and less than 20 is denoted as A) | B (a compound having 3 or more and less than 10 is denoted as B) |  | 
2.5 | CCC[C@H]1C(=O)N[C@@H]([C@@H](C)CC)C(=O)N(C)CC(=O)N(C)[C@H]2C/C=C\CCN(C2=O)[C@@H](Cc2ccc(C(F)(F)F)cc2)C(=O)N(C)CC(=O)N[C@@H](CCc2ccc(C(F)(F)F)c(OC)c2)C(=O)N2C[C@H](OCC)C[C@H]2C(=O)N(C)C2(CCC2)C(=O)N(C)[C@@H](C2CCCC2)C(=O)N(C)[C@H](C(=O)N2CCCC2)CC(=O)N1C [PP3105] |  |  | AA (a compound having 20 or more is denoted as AA) | A (a compound having 10 or more and less than 20 is denoted as A)
